Laboratory results from US20170275270A1, “BENZYL SUBSTITUTED INDAZOLES” (Bayer Pharma Aktiengesellschaft, priority 2014, published 2017).
Counter-ions that a name gives are not always drawn. Like-named read-outs stand apart in the source and are kept apart here.

Target: T1, catalytic domain of human Bub1 (amino acids 704-1085) (Homo sapiens, UniProt O43683)
T1 construct: catalytic domain of human Bub1 (amino acids 704-1085); His6 (N); made in house; host or cells: Hi5 insect cells
Test: Bub1 kinase assay (TR-FRET)
Format: biochemical
Experimental: To this end, 100-fold concentrated compound solutions (in DMSO) were previously prepared by serial dilution (1:3.4) of 2 mM stocks in a clear low volume 384-well source microtiter plate (Greiner Bio-One, Frickenhausen, Germany), from which 50 nL of compounds were transferred into a black low volume test microtiter plate from the same supplier. […] The resulting mixture (5 μL final volume) was incubated at 22° C. during 60 min., and the reaction was stopped by the addition of 5 μL of an aqueous EDTA-solution (50 mM EDTA, in 100 mM HEPES pH 7.5 and 0.2% (w/v) bovine serum albumin) which also contained the TR-FRET detection reagents (0.2 μM streptavidin-XL665 [Cisbio Bioassays, Codolet, France] and 1 nM anti-phosho-Serine antibody [Merck Millipore, cat. #35-001] and 0.4 nM LANCE EU-W1024 labeled anti-mouse IgG antibody [Perkin-Elmer, product no. AD0077, alternatively a Terbium-cryptate-labeled anti-mouse IgG antibody from Cisbio Bioassays can be used]). The stopped reaction mixture was further incubated 1 h at 22° C. in order to allow the formation of complexes between peptides and detection reagents. Subsequently, the amount of product was evaluated by measurement of the resonance energy transfer from the Eu-chelate-antibody complex recognizing the Phosphoserine residue to the streptavidin-XL665 bound to the biotin moiety of the peptide. […] IC50 values were calculated by fitting the normalized inhibition data to a 4-parameter logistic equation (Minimum, Maximum, IC50, Hill; Y=Max+(Min−Max)/(1+(X/IC50) Hill)).

[1] = Biological Assay 1: Bub1 kinase assay median IC50, 10 μM ATP
[2] = 10 μM ATP, read-out: Biological Assay 1: Bub1 kinase assay median IC50

T1 sequence (O43683 704-1085): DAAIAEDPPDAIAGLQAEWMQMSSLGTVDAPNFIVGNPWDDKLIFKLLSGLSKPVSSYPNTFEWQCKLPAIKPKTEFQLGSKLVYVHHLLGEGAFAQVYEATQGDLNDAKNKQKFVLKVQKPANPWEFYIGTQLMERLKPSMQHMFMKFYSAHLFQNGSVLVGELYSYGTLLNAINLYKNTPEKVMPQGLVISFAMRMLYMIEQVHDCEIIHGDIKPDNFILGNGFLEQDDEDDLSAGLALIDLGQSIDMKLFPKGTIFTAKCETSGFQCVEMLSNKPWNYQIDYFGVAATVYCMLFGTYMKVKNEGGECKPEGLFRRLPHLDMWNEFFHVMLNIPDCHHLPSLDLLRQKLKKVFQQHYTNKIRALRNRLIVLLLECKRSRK

SMILES	IC50 [1] [nM]	IC50 [2] [nM]
COCCOc1cc(F)c(Cn2nc(-c3nc4c(c(Nc5ccncc5Cl)n3)CCC(C)(C)C4)c3ccccc32)c(F)c1 [Example 2-15-10, N-(3-chloropyridin-4-yl)-2-{1-[2,6-difluoro-4-(2-methoxyethoxy)benzyl]-1H-indazol-3-yl}-7,7-dimethyl-5,6,7,8-tetrahydroquinazolin-4-amine]	1400	–
COCCOc1cc(F)c(Cn2nc(-c3nc4c(c(Nc5ccnc(C)n5)n3)COCC4)c3ccccc32)c(F)c1 [Example 2-12-100, 2-{1-[2,6-difluoro-4-(2-methoxyethoxy)benzyl]-1H-indazol-3-yl}-N-(2-methylpyrimidin-4-yl)-7,8-dihydro-5H-pyrano[4,3-d]pyrimidin-4-amine]	99	–
COc1cnccc1Nc1nc(-c2nn(Cc3c(F)cc(OCCO)cc3F)c3ccccc23)nc2c1CN(CC(F)(F)F)C2 [Example 2-6-41, 2-{3,5-difluoro-4-[(3-{4-[(3-methoxypyridin-4-yl)amino]-6-(2,2,2-trifluoroethyl)-6,7-dihydro-5H-pyrrolo[3,4-d]pyrimidin-2-yl}-1H-indazol-1-yl)methyl]phenoxy}ethanol]	14	–
COCCOc1cc(F)c(Cn2nc(-c3ncc(C4CCN(CC(F)F)CC4)c(Nc4ccnc(C)n4)n3)c3ccccc32)c(F)c1 [Example 2-20-11, 5-[1-(2,2-difluoroethyl)piperidin-4-yl]-2-{1-[2,6-difluoro-4-(2-methoxyethoxy)benzyl]-1H-indazol-3-yl}-N-(2-methylpyrimidin-4-yl)pyrimidin-4-amine]	63	–
COCCOc1cc(F)c(Cn2nc(-c3ncc(C4CCN(CC(F)(F)F)CC4)c(Nc4ccncc4Cl)n3)c3ccccc32)c(F)c1 [Example 2-20-8, N-(3-chloropyridin-4-yl)-2-{1-[2,6-difluoro-4-(2-methoxyethoxy)benzyl]-1H-indazol-3-yl}-5-[1-(2,2,2-trifluoroethyl)piperidin-4-yl]pyrimidin-4-amine]	> 20000	–
CC(=O)Nc1cc(Nc2nc(-c3nn(Cc4c(F)cc(O)cc4F)c4ccccc34)nc3c2CCC3)ccn1 [Example 2-6-7, N-[4-({2-[1-(2,6-difluoro-4-hydroxybenzyl)-1H-indazol-3-yl]-6,7-dihydro-5H-cyclopenta[d]pyrimidin-4-yl}amino)pyridin-2-yl]acetamide]	9.3	–
COCCOc1cc(F)c(Cn2nc(-c3nc(Nc4cc(C)ncc4C)cc(C(C)C)n3)c3ccccc32)c(F)c1 [Example 2-12-74, 2-{1-[2,6-difluoro-4-(2-methoxyethoxy)benzyl]-1H-indazol-3-yl}-N-(2,5-dimethylpyridin-4-yl)-6-isopropylpyrimidin-4-amine]	–	180
CCOc1cc(F)c(Cn2nc(-c3nc(CN4CCOCC4)cc(Nc4ccnc(O)c4)n3)c3ccccc32)c(F)c1 [Example 2-12-46, 4-({2-[1-(4-ethoxy-2,6-difluorobenzyl)-1H-indazol-3-yl]-6-(morpholin-4-ylmethyl)pyrimidin-4-yl}amino)pyridin-2-ol]	1100	–
COCCOc1cc(F)c(Cn2nc(-c3nc4c(c(Nc5cc(C)ncc5F)n3)CCC4)c3ccccc32)c(F)c1 [Example 2-12-58, 2-{1-[2,6-difluoro-4-(2-methoxyethoxy)benzyl]-1H-indazol-3-yl}-N-(5-fluoro-2-methylpyridin-4-yl)-6,7-dihydro-5H-cyclopenta[d]pyrimidin-4-amine]	17	–
COc1cnccc1Nc1nc(-c2nn(Cc3c(F)cc(OCCO)cc3F)c3ccccc23)nc2c1CCCCC2 [Example 2-6-44, 2-{3,5-difluoro-4-[(3-{4-[(3-methoxypyridin-4-yl)amino]-6,7,8,9-tetrahydro-5H-cyclohepta[d]pyrimidin-2-yl}-1H-indazol-1-yl)methyl]phenoxy}ethanol]	12	–
COCCOc1cc(F)c(Cn2nc(-c3ncc(C4CCN(CC(F)(F)F)CC4)c(Nc4ccnc(C)n4)n3)c3ccccc32)c(F)c1 [Example 2-20-10, 2-{1-[2,6-difluoro-4-(2-methoxyethoxy)benzyl]-1H-indazol-3-yl}-N-(2-methylpyrimidin-4-yl)-5-[1-(2,2,2-trifluoroethyl)piperidin-4-yl]pyrimidin-4-amine]	290	–
COCCOc1cc(F)c(Cn2nc(-c3nc4c(c(Nc5ccnc(C)n5)n3)CNC4)c3ccccc32)c(F)c1 [Example 2-9-25, 2-{1-[2,6-difluoro-4-(2-methoxy-ethoxy)benzyl]-1H-indazol-3-yl}-N-(2-methylpyrimidin-4-yl)-6,7-dihydro-5H-pyrrolo[3,4-d]pyrimidin-4-amine, salt with hydrochloric acid]	77	–
OCCOc1cc(F)c(Cn2nc(-c3nc4c(c(Nc5ccncn5)n3)CN(CC(F)(F)F)C4)c3ccccc32)c(F)c1 [Example 2-6-40, 2-[3,5-difluoro-4-({3-[4-(pyrimidin-4-ylamino)-6-(2,2,2-trifluoroethyl)-6,7-dihydro-5H-pyrrolo[3,4-d]pyrimidin-2-yl]-1H-indazol-1-yl}methyl)phenoxy]ethanol]	9.3	–
COCCOc1cc(F)c(Cn2nc(-c3nc4c(c(Nc5cc(C)ncc5C)n3)CCC4)c3ccccc32)c(F)c1 [Example 2-12-57, 2-{1-[2,6-difluoro-4-(2-methoxyethoxy)benzyl]-1H-indazol-3-yl}-N-(2,5-dimethylpyridin-4-yl)-6,7-dihydro-5H-cyclopenta[d]pyrimidin-4-amine]	130	–
COCCOc1cc(F)c(Cn2nc(-c3ncc(C4CCN(CC(F)(F)F)CC4)c(Nc4ccnc(NC(C)=O)c4)n3)c3ccccc32)c(F)c1 [Example 2-20-7, N-{4-[(2-{1-[2,6-difluoro-4-(2-methoxyethoxy)benzyl]-1H-indazol-3-yl}-5-[1-(2,2,2-trifluoroethyl)piperidin-4-yl]pyrimidin-4-yl)amino]pyridin-2-yl}acetamide]	66	–
CC(=O)Nc1cc(Nc2nc(-c3nn(Cc4c(F)cc(OCCO)cc4F)c4ccccc34)nc3c2CCC(C)(C)C3)ccn1 [Example 2-6-42, N-{4-[(2-{1-[2,6-difluoro-4-(2-hydroxyethoxy)benzyl]-1H-indazol-3-yl}-7,7-dimethyl-5,6,7,8-tetrahydroquin-azolin-4-yl)amino]pyridin-2-yl}acetamide]	14	–
Cc1cc(Nc2cc(C(C)C)nc(-c3nn(Cc4c(F)cc(OCCO)cc4F)c4ccccc34)n2)c(C)cn1 [Example 2-6-30, 2-{4-[(3-{4-[(2,5-dimethylpyridin-4-yl)amino]-6-isopropylpyrimidin-2-yl}-1H-indazol-1-yl)methyl]-3,5-difluorophenoxy} ethanol]	–	3200

Other lines, results leading:

IC50 [1] [nM]	IC50 [2] [nM]	SMILES
12	–	CCOc1cc(F)c(Cn2nc(-c3ncc(CCOC)c(Nc4ccncc4)n3)c3ccccc32)c(F)c1 [Example 2-2-9, 2-[1-(4-ethoxy-2,6-difluorobenzyl)-1H-indazol-3-yl]-5-(2-methoxyethyl)-N-(pyridin-4-yl)pyrimidin-4-amine]
13	–	CCOc1cc(F)c(Cn2nc(-c3ncc(C)c(Nc4ccncc4)n3)c3ccccc32)c(F)c1 [Example 2-2-4, 2-[1-(4-ethoxy-2,6-difluorobenzyl)-1H-indazol-3-yl]-5-methyl-N-(pyridin-4-yl)pyrimidin-4-amine]
–	8.8	COCc1cc(Nc2ccncc2OC)nc(-c2nn(Cc3c(F)cc(OCCO)cc3F)c3ccccc23)n1 [Example 2-12-49, 2-{3,5-difluoro-4-[(3-{4-(methoxymethyl)-6-[(3-methoxypyridin-4-yl)amino]pyrimidin-2-yl}-1H-indazol-1-yl)methyl]phenoxy}eth-anol]
15	–	CCOc1cc(F)c(Cn2nc(-c3ncc(CCCN4CCOCC4)c(Nc4ccncc4)n3)c3ccccc32)c(F)c1 [Example 2-2-13, 2-[1-(4-ethoxy-2,6-difluorobenzyl)-1H-indazol-3-yl]-5-[3-(morpholin-4-yl)propyl]-N-(pyridin-4-yl)pyrimidin-4-amine]
3.7	–	COCCOc1cc(F)c(Cn2nc(-c3ncc(C4CC4)c(Nc4ccncc4OC)n3)c3ccccc32)c(F)c1 [Example 2-2-48, 5-cyclopropyl-2-{1-[2,6-difluoro-4-(2-methoxyethoxy)benzyl]-1H-indazol-3-yl}-N-(3-methoxypyridin-4-yl)pyrimidin-4-amine]
17	–	CCOc1cc(F)c(Cn2nc(-c3ncc(CCCOC)c(Nc4ccncc4)n3)c3ccccc32)c(F)c1 [Example 2-2-11, 2-[1-(4-ethoxy-2,6-difluorobenzyl)-1H-indazol-3-yl]-5-(3-methoxypropyl)-N-(pyridin-4-yl)pyrimidin-4-amine]
16	–	CCOc1cc(F)c(Cn2nc(-c3nc4c(c(Nc5ccncc5)n3)CNCC4)c3ccccc32)c(F)c1 [Example 2-9-16, 2-[1-(4-ethoxy-2,6-difluorobenzyl)-1H-indazol-3-yl]-N-(pyridin-4-yl)-5,6,7,8-tetrahydro-pyrido[4,3-d]pyr-imidin-4-amine]
180	–	COCCOc1cc(F)c(Cn2nc(-c3nc(C)c(F)c(Nc4ccnc(C)n4)n3)c3ccccc32)c(F)c1 [Example 2-12-75, 2-{1-[2,6-difluoro-4-(2-methoxyethoxy)benzyl]-1H-indazol-3-yl}-5-fluoro-6-methyl-N-(2-methylpyrimidin-4-yl)pyrimidin-4-amine]
